Where “and” joins values, the source holds several entries; their conditions need not be identical. Equal values may be shown once. Read-outs that look alike come from different tables or passages of the source.
Experiments:
[1] = ORAC (Oxygen Radical Absorbance Capacity) assay; conditions: for ORAC: μM Trolox equivalents per gram, mean ± SD
Description: The ORAC assay was conducted according to Prior et al.’s method, which is a modified version of the original ORAC assay developed by Cao and Prior [26]. In this assay, 2,2′-azobis(2-amidinopropane) dihydrochloride (AAPH) underwent thermal decomposition to generate peroxyl radicals, resulting in a reduction in fluorescence from fluorescein. The antioxidant potential of the isolated compounds was measured by their ability to prevent any loss in fluorescence from fluorescein by neutralizing peroxyl radicals and assessing the sample’s fluorescence area under the curve (AUC). The fluoroskan spectrum plate reader was programmed to record fluorescein’s fluorescence every 2 min after the addition of AAPH with the excitation wavelength at 485 nm and the emission wavelength at 530 nm. The Trolox (TE) stock solution was used as standard with concentration varying between 0 and 417 μM. The ORAC values were calculated using a regression equation (y = mx + c) between Trolox concentration (y in μM) and the net area under the fluorescence decay curve (x). ORAC values were expressed as μM Trolox equivalents (TE) per gram of test samples (μM TE/g). The antioxidant epigallocatechin gallate (EGCG) was used as a positive control.

[2] = FRAP (Ferric Ion Reducing Antioxidant Power) assay; conditions: for FRAP: μM ascorbic acid equivalents per gram, mean ± SD
Description: The FRAP assay was conducted according to Benzie and Strain’s method, which consists of finding the compounds’ antioxidant potential in terms of μM ascorbic acid equivalents per gram dry weight (μM AAE/g). L-Ascorbic acid was used as a standard in the FRAP assay with concentrations varying between 0 and 1000 μM. The antioxidant potential of the tested samples was read at a wavelength of 593 nm in a Multiskan (Thermo Fisher Scientific, Waltham, MA, USA) spectrum plate reader.

[3] = system: HaCaT cells; test: In vitro cytotoxicity MTT assay; conditions: HaCaT cells
[4] = In vitro cytotoxicity MTT assay; conditions: human
[5] = TEAC (Trolox Equivalent Absorbance Capacity) assay; conditions: for TEAC: μM Trolox equivalents per gram, mean ± SD
Description: The TEAC assay was done according to the method developed by Pellegrini et al., which consists of determining the activities of the isolated compounds in terms of μM Trolox equivalents per gram dry weight (μM TE/g) of the test samples. Trolox was used as the standard with concentrations ranging from 0–500 μM. The absorbance was recorded by a Multiskan spectrometer plate reader at wavelength 734 nm. The antioxidant epigallocatechin gallate (EGCG) was used as a positive control.

[6] = system: Mtb H37Rv pMSp12::GFP bioreporter strain; test: microbe, parasite or virus in culture; type: cell-based, Mycobacterium tuberculosis; conditions: for MIC90: Mycobacterium tuberculosis, H37RV; for ADC MIC increase: may be due to serum binding
[7] = in vitro; conditions: human
[8] = 168 h, […], 7 days, 90% inhibition, read-out: MIC90, 7H9/ADC/Glu/Tw, 7 Days
[9] = 168 h, […], 7 days, 90% inhibition, read-out: MIC90, 7H9/CAS/ Glu/Tx, 7 Days
[10] = 168 h, […], 7 days, value in brackets, read-out: MIC90, 7H9/CAS/ Glu/Tx, 7 Days
[11] = 168 h, supplement, […], day 7, read-out: GFP Assay - 10pt DR: MIC90 [Media: 7H9 ADC GLU Tw, Day:7]
[12] = 168 h, supplement, […], day 7, read-out: GFP Assay - 10pt DR: MIC90 [Media: 7H9 CAS GLU Tx, Day:7]
[13] = 336 h, […], 14 days, 90% inhibition, read-out: MIC90, 7H9/ADC/Glu/Tw, 14 Days
[14] = 336 h, […], 14 days, 90% inhibition, read-out: MIC90, 7H9/CAS/ Glu/Tx, 14 Days
[15] = 336 h, […], 14 days, value in brackets, read-out: MIC90, 7H9/CAS/ Glu/Tx, 14 Days
[16] = 336 h, supplement, […], day 14, read-out: GFP Assay - 10pt DR: MIC90 [Media: 7H9 ADC GLU Tw, Day:14]
[17] = 336 h, supplement, […], day 14, read-out: GFP Assay - 10pt DR: MIC90 [Media: 7H9 CAS GLU Tx, Day:14]
[18] = span over compounds, medium and day not stated (abstract), read-out: MIC90 against Mycobacterium tuberculosis H37Rv
[19] = 168 h, […], 7 days, value in brackets, read-out: MIC90, 7H9/ADC/Glu/Tw, 7 Days
[20] = 336 h, […], 14 days, value in brackets, read-out: MIC90, 7H9/ADC/Glu/Tw, 14 Days

Row | SMILES | antioxidant activity in ORAC assay (in words) [1] | ORAC [1] | antioxidant activity in FRAP assay (in words) [2] | FRAP [2] | IC50 at 24 h [4] | antioxidant activity in TEAC assay (in words) [5] | TEAC [5] | MIC90 [6, 8] [µg/mL] | MIC90 [6, 9] [µg/mL] | MIC90 [6, 10] [µM] | MIC90 [6, 11] [µg/mL] | MIC90 [6, 12] [µg/mL] | MIC90 [6, 13] [µg/mL] | MIC90 [6, 14] [µg/mL] | MIC90 [6, 15] [µM] | MIC90 [6, 16] [µg/mL] | MIC90 [6, 17] [µg/mL] | MIC90 [6, 18] [µM] | other results
1 | CC(C)C1=C(O)C(=O)C2=C(C(=O)C(O)=C3C(C)(C)CCC[C@]23C)C1=O [Compound 4, coleon U quinone] | good activity | 21,857.8 ± 5.85 µM TE/g | weak antioxidant activities | 2109.6 ± 2.78 µM AAE/g | 33.9 µg/mL and 98.5 µM | weak antioxidant activities | 225.5 ± 1.47 µM TE/g | > 125 | 15.6 | 45.4 | > 125 | 15.6 | > 125 | 1.93 | 5.61 | > 125 | 1.94 | 5.61 to 180 | cytotoxic activity against HaCaT cells (in words) [3]: good cytotoxic activities; ADC MIC increase ([6]; […]): ADC MIC is increased > 4 fold which may be due to serum binding
2 | CC(C)C1=C(O)C(=O)C2=C(C1=O)[C@H](O)[C@@H](O)C1C(C)(C)CCC[C@]21C (stereo partly drawn) [Compound 1, 6β,7α-dihydroxyroyleanone] | good antioxidant activities | 23,625.0 ± 1.64 µM TE/g | very little activity | 541.5 ± 1.59 µM AAE/g | 60.2 µg/mL and 173 µM | good antioxidant activities | 5080.8 ± 0.04 µM TE/g | > 125 | 62.5 | 180 | > 125 | 62.5 | > 125 | 60.6 | 174 | > 125 | 60.6 | 5.61 to 180 | 
3 | CC/C(=C(\c1ccccc1)c1ccc(OCCN(C)C)cc1)c1ccccc1 [tamoxifen] |  |  |  |  |  |  |  |  |  |  |  |  |  |  |  |  |  |  | IC50 at 24 h [7]: 22 µg/mL and 59.3 µM
4 | CC(C)c1cc2c(c(O)c1O)[C@@]13CCCC(C)(C)[C@@H]1[C@](O)(OC3)C2=O [Compound 5, carnosolon] |  | 29,287.4 ± 4.75 µM TE/g |  | 13,772.2 ± 2.76 µM AAE/g | 27.5 µg/mL and 79.8 µM |  | 4876.3 ± 0.49 µM TE/g | > 125 | > 125 |  | > 125 | > 125 | > 125 | > 125 |  | > 125 | > 125 |  | cytotoxic activity against HaCaT cells (in words) [3]: good cytotoxic activities; MIC90 ([6]; in both media, read-out: MIC90 against Mtb H37Rv): > 125 µg/mL
5 | CO[C@H]1/C=C/O[C@@]2(C)Oc3c(C)c(O)c4c(O)c(c(/C=N/N5CCN(C)CC5)c(O)c4c3C2=O)NC(=O)/C(C)=C\C=C\[C@H](C)[C@H](O)[C@@H](C)[C@@H](O)[C@@H](C)[C@H](OC(C)=O)[C@@H]1C [Rifampicin, reference compound] |  |  |  |  |  |  |  | 0.001 | 0.015 | 0.02 | 0.001 | 0.013 | 0.002 | 0.035 | 0.04 | 0.0011 | 0.018 |  | MIC90 [6, 19]: 0.001 µM; MIC90 [6, 20]: 0.002 µM; GFP Assay - 10pt DR: MIC90 [Media: 7H9 ADC GLU Tw, Day:7] ([6]; supplement, […], day 7): 0.002 µg/mL; GFP Assay - 10pt DR: MIC90 [Media: 7H9 CAS GLU Tx, Day:7] ([6]; supplement, […], day 7): 0.015 µg/mL; GFP Assay - 10pt DR: MIC90 [Media: 7H9 ADC GLU Tw, Day:14] ([6]; supplement, […], day 14): 0.001 µg/mL; GFP Assay - 10pt DR: MIC90 [Media: 7H9 CAS GLU Tx, Day:14] ([6]; supplement, […], day 14): 0.035 µg/mL
6 | CC(=O)OC1C2=C(C(=O)C(O)=C(C(C)C)C2=O)C2(C)CCCC(C)(C)C2C1O (stereo not drawn) [Compound 2, 7α-acetoxy-6β-hydroxyroyleanone] | good activity | 21,404.1 ± 4.35 µM TE/g | weak antioxidant activities | 345.5 ± 0.77 µM AAE/g | 42.7 µg/mL and 109 µM | weak antioxidant activities | 3700.8 ± 1.50 µM TE/g | 14.4 | 15.2 | 39 | 15 | 15.2 | 14.6 | 15.6 | 40.1 | 33.6 | 15.6 | 5.61 to 180 | antimycobacterial activity (in words) [6]: moderate activities; MIC90 [6, 19]: 36.8 µM; MIC90 [6, 20]: 37.5 µM
7 | CC(C)C1=C(O)C(=O)C2=C(C1=O)[C@H](O)C[C@H]1C(C)(C)CCC[C@]21C [Compound 3, horminone] |  | 12,443.3 ± 3.61 µM TE/g |  | 296.5 ± 6.72 µM AAE/g | 53.7 µg/mL and 162 µM |  | Inactive | > 125 | 14.3 | 43.2 | > 125 | 14.3 | > 125 | 3.96 | 11.9 | > 125 | 3.96 | 5.61 to 180 | ADC MIC increase ([6]; […]): ADC MIC is increased > 4 fold which may be due to serum binding
8 | O=C(O[C@@H]1Cc2c(O)cc(O)cc2O[C@@H]1c1cc(O)c(O)c(O)c1)c1cc(O)c(O)c(O)c1 [EGCG, epigallocatechin gallate, reference compound] |  | 14,970.0 ± 5.53 µM TE/g |  | 10,455.1 ± 0.81 µM AAE/g |  |  | 4722.5 ± 2.22 µM TE/g |  |  |  |  |  |  |  |  |  |  |  | 
